The values below come from patent US20150307461A1, “ANTIVIRAL COMPOUNDS” (priority 2012, published 2015).

What all share (experiment): microbe, parasite or virus in culture
In test [1] the test system is Pseudotyped HCV GT1a particles (HCVpp). The format is cell-based, HCV GT1a H77 strain. The settings on record: Hepatitis C virus, 72 h, read-out: HCVpp GT-1a (EC50, μM).
Test [2] relates to pseudotyped VSV G particles (VSVpp). In kind it is cell-based. The following applies: Vesicular stomatitis virus, 72 h, read-out: VSVpp (EC50, μM).
The subject of test [3] is Pseudotyped HCV GT1b particles (HCVpp). The format is cell-based, HCV GT1b Con1 strain. The settings on record: Hepatitis C virus, 72 h, read-out: HCVpp GT-1b (EC50, μM).

For `Nc1nc(Nc2cccc(S(F)(F)(F)(F)F)c2)n[nH]1` [Compound I-70, N*3*-(3-pentafluorosulfur-phenyl)-1H-[1,2,4]triazole-3,5-diamine], the EC50 (commonly the concentration that produces a half-maximal response) came to 0.152 µM in test [1], 100 µM in test [2] and 1.1 µM in test [3].
On to `Nc1nc(Nc2ccc3ccccc3c2)n[nH]1` [Compound I-18, N*3*-Naphthalen-2-yl-1H-[1,2,4]triazole-3,5-diamine], for which the 50% effective concentration (EC50) in test [1] came to 2.95 µM; in test [2] it was 100 µM; in test [3], 27.5 µM.
Take `Nc1nc(Nc2cccc(OC(F)(F)F)c2)n[nH]1` [Compound I-52, N^3-(3-Trifluoromethoxy-phenyl)-1H-[1,2,4]triazole-3,5-diamine]: the 50% effective concentration (EC50) in test [1] is 2.39 µM; in test [2], 100 µM; in test [3] it was 12.6 µM.
With `Nc1nc(Nc2cc(Cl)c(Br)c(C(F)(F)F)c2)n[nH]1` [Compound I-42, N3-(4-bromo-3-chloro-5-(trifluoromethyl)phenyl)-1H-1,2,4-triazole-3,5-diamine], the 50% effective concentration (EC50) worked out at 0.081 µM in test [1] and 0.404 µM in test [3].
On to `Nc1nc(Nc2ccc(OCc3ccccc3)c(Cl)c2)n[nH]1` [Compound I-37, N*3*-(4-Benzyloxy-3-chloro-phenyl)-1H-[1,2,4]triazole-3,5-diamine], for which the EC50 in test [1] is 0.92 µM; in test [2], 33.3 µM; in test [3], 13.4 µM.
In the case of `Nc1nc(Nc2cccc(Br)c2)n[nH]1` [Compound I-15, N*3*-(3-Bromo-phenyl)-1H-[1,2,4]triazole-3,5-diamine], the results for the EC50 in test [1], in test [2] and in test [3] were 1.41 µM, 100 µM and 18.1 µM, respectively.
The corresponding values for `Nc1nc(Nc2cc(F)cc(S(F)(F)(F)(F)F)c2)n[nH]1` [Compound I-73, N*3*-(3-Fluoro-5-pentafluorosulfur-phenyl)-1H-[1,2,4]triazole-3,5-diamine] are 0.035 µM, 100 µM and 0.188 µM.
Consider `Nc1nc(Nc2ccc(C(F)(F)F)c(Cl)c2)n[nH]1` [Compound I-10, N*3*-(3-Chloro-4-trifluoromethyl-phenyl)-1H-[1,2,4]triazole-3,5-diamine], for which the EC50 in test [1] was 0.368 µM; in test [2], 100 µM; in test [3], 5.14 µM.
For `CC(C)(C)c1cccc(Nc2n[nH]c(N)n2)c1` [Compound I-6, N^3-(3-tert-Butyl-phenyl)-1H-[1,2,4]triazole-3,5-diamine], in that order: 0.948 µM, 100 µM and 1.59 µM.
For `Nc1nc(Nc2cc(F)c(Br)c(S(F)(F)(F)(F)F)c2)n[nH]1` [Compound I-83, N*3*-(4-Bromo-3-fluoro-5-pentafluorosulfur-phenyl)-1H-[1,2,4]triazole-3,5-diamine], in that order: 0.076 µM, 32.5 µM and 0.17 µM.
As for `Nc1nc(Nc2cc(Cl)c(I)c(Cl)c2)n[nH]1` [Compound I-3, N^3-(3,5-Dichloro-4-iodo-phenyl)-1H-[1,2,4]triazole-3,5-diamine], the EC50 in test [1] was found to be 0.012 µM; in test [2] it was 32.7 µM; in test [3], 0.386 µM.
For `Nc1nc(Nc2ccc(Cl)c([N+](=O)[O-])c2)n[nH]1` [Compound I-13, N*3*-(4-Chloro-3-nitro-phenyl)-1H-[1,2,4]triazole-3,5-diamine], the results for the EC50 in test [1], in test [2] and in test [3] were 0.539 µM, 100 µM and 4.85 µM, respectively.
As for `Nc1nc(Nc2ccc(C#Cc3ccccc3)c(Cl)c2)n[nH]1` [Compound I-14, N*3*-(3-Chloro-4-phenylethynyl-phenyl)-1H-[1,2,4]triazole-3,5-diamine], the results for the concentration for a half-maximal effect (EC50) in test [1], in test [2] and in test [3] were 5.34 µM, 100 µM and 32.7 µM, respectively.
Take `CS(=O)(=O)c1ccc(Nc2n[nH]c(N)n2)cc1` [Compound I-20, N*3*-(4-Methanesulfonyl-phenyl)-1H-[1,2,4]triazole-3,5-diamine]: the concentration for a half-maximal effect (EC50) in test [1] worked out at 90.6 µM; in test [2] it was 100 µM; in test [3], 100 µM.
In the case of `CC(C)(C)c1cc(Nc2n[nH]c(N)n2)ccc1C#N` [Compound I-16, 4-(5-Amino-1H-[1,2,4]triazol-3-ylamino)-2-tert-butyl-benzonitrile], the EC50 in test [1] stood at 5.34 µM; in test [2], 100 µM; in test [3] it was 16.1 µM.
The corresponding values for `N#Cc1c(Cl)cc(Nc2n[nH]c(N)n2)cc1C(F)(F)F` [Compound I-43, 4-(5-amino-1H-1,2,4-triazol-3-ylamino)-2-chloro-6-(trifluoromethyl)benzonitrile] are 0.038 µM, 30.3 µM and 0.146 µM.
`Nc1nc(Nc2ccc(S(=O)(=O)C(F)(F)F)cc2)n[nH]1` [Compound I-17, N*3*-(4-Trifluoromethanesulfonyl-phenyl)-1H-[1,2,4]triazole-3,5-diamine]: the concentration for a half-maximal effect (EC50) in test [1] is 12.6 µM; in test [2], 100 µM; in test [3] it was 14.2 µM.
As to `N#Cc1ccc(Nc2n[nH]c(N)n2)cc1C1CC1` [Compound I-35, 4-(5-Amino-1H-1,2,4-triazol-3-ylamino)-2-cyclopropylbenzonitrile], the EC50 worked out at 0.34 µM in test [1], 62.8 µM in test [2] and 1.73 µM in test [3].
Take `Nc1nc(Nc2cc(Cl)c(Cl)c(Cl)c2)n[nH]1` [Compound I-11, N*3*-(3,4,5-Trichloro-phenyl)-1H-[1,2,4]triazole-3,5-diamine]: the half-maximal effective concentration (EC50) in test [1] was found to be 0.166 µM; in test [2] it was 100 µM; in test [3] it was 4.68 µM.
For `Nc1nc(Nc2cccc(S(=O)(=O)C(F)(F)F)c2)n[nH]1` [Compound I-4, N^3-(3-Trifluoromethanesulfonyl-phenyl)-1H-[1,2,4]triazole-3,5-diamine], the EC50 was 0.412 µM in test [1], 100 µM in test [2] and 0.823 µM in test [3].
The corresponding values for `CC(C)(C)c1cc(Nc2n[nH]c(N)n2)cc(C(C)(C)C)c1` [Compound I-19, N*3*-(3,5-Di-tert-butyl-phenyl)-1H-[1,2,4]triazole-3,5-diamine] are 44.7 µM, 87.8 µM and 56.8 µM.
Turning to `CC(C)c1cccc(Nc2n[nH]c(N)n2)c1` [Compound I-56, N^3-(3-Isopropyl-phenyl)-1H-[1,2,4]triazole-3,5-diamine], the EC50 in test [1] came to 8.36 µM; in test [2], 100 µM; in test [3] it was 19.6 µM.
Consider `Nc1nc(Nc2cc(Cl)cc(C(F)(F)F)c2)n[nH]1` [Compound I-50, N^3-(3-Chloro-5-trifluoromethyl-phenyl)-1H-[1,2,4]triazole-3,5-diamine], for which the results for the EC50 in test [1], in test [2] and in test [3] were 0.094 µM, 100 µM and 1.1 µM, respectively.
For `Nc1nc(Nc2cc(Cl)c(C3CC3)c(Cl)c2)n[nH]1` [Compound I-39], in that order: 0.015 µM, 37.9 µM and 0.574 µM.
For the molecule `Cc1c(Cl)cc(Nc2n[nH]c(N)n2)cc1Cl` [Compound I-38, N*3*-(3,5-Dichloro-4-methyl-phenyl)-1H-[1,2,4]triazole-3,5-diamine], the half-maximal effective concentration (EC50) was found to be 0.023 µM in test [1], 79.4 µM in test [2] and 0.75 µM in test [3].
Regarding `CS(=O)(=O)c1ccc(Nc2n[nH]c(N)n2)cc1Cl` [Compound I-77, N^3-(3-Chloro-4-methanesulfonyl-phenyl)-1H-[1,2,4]triazole-3,5-diamine], the results for the EC50 in test [1] and in test [3] were 1.59 µM and 20.4 µM, respectively.
As to `Nc1nc(Nc2ccc(S(=O)(=O)C(F)(F)F)c(Cl)c2)n[nH]1` [Compound I-7, N*3*-(3-Chloro-4-trifluoromethanesulfonyl-phenyl)-1H-[1,2,4]triazole-3,5-diamine], the EC50 in test [1] worked out at 1.28 µM; in test [2] it was 100 µM; in test [3], 0.91 µM.
For `N#Cc1ccc(Nc2n[nH]c(N)n2)cc1Cl` [Compound I-12, 4-(5-Amino-1H-[1,2,4]triazol-3-ylamino)-2-chloro-benzonitrile], in that order: 0.335 µM, 100 µM and 4.19 µM.
The corresponding values for `Nc1nc(Nc2ccc([N+](=O)[O-])c(Cl)c2)n[nH]1` [Compound I-8, N*3*-(3-Chloro-4-nitro-phenyl)-1H-[1,2,4]triazole-3,5-diamine] are 0.141 µM, 98.1 µM and 1.15 µM.
The corresponding values for `Nc1nc(Nc2cccc(Cl)c2)n[nH]1` [Compound I-36, N*3*-(3-Chloro-phenyl)-1H-[1,2,4]triazole-3,5-diamine] are 1.84 µM, 100 µM and 28.6 µM.
In the case of `Nc1nc(Nc2cc(Cl)c(S(=O)(=O)N3CCOCC3)c(Cl)c2)n[nH]1` [Compound I-44, N3-(3,5-dichloro-4-(morpholinosulfonyl)phenyl)-1H-1,2,4-triazole-3,5-diamine], the EC50 in test [2] is 100 µM; in test [3], 0.545 µM.
In the case of `Nc1nc(Nc2cc(Cl)cc(Cl)c2)n[nH]1` [Compound I-41, 3-Amino-5-(3,5-Dichloroanilino)-S-triazole], the figures for the EC50 in test [1] and in test [3] were 0.138 µM and 1.61 µM, respectively.
As to `N#CCc1c(Cl)cc(Nc2n[nH]c(N)n2)cc1C(F)(F)F` [Compound I-84, 2-(4-(5-amino-1H-1,2,4-triazol-3-ylamino)-2-chloro-6-(trifluoromethyl)phenyl)acetonitrile], the EC50 in test [2] was 42.1 µM; in test [3], 0.628 µM.
Regarding `Nc1n[nH]c(Nc2cc(F)c(Br)c(C(F)(F)F)c2)n1` [Compound I-45, N^5-(4-bromo-3-fluoro-5-trifluoromethylphenyl)-1H-[1,2,4]-triazole-3,5-diamine], the results for the concentration for a half-maximal effect (EC50) in test [2] and in test [3] were 82.5 µM and 0.095 µM, respectively.
